What was measured:
[1] = target: recombinant DYRK1A kinase (Homo sapiens (Human), UniProt Q13627); experiment: DYRK1A kinase assay (Ser/Thr 18 peptide Z-lyte FRET assay); assay type: biochemical; settings: DYRK1A kinase activity; 15 μM ATP, 1 h room temperature; method text calls the value IC50
Method in brief: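 Recombinant human DYRK1A (0.25 μg/mL) with 15 μM ATP and 4 μM Ser/Thr 18 peptide, 1 h at room temperature with compound (11-point, 1:3, 10 μM top, duplicate). Z-lyte development 1 h, then coumarin/fluorescein FRET emission ratio converted to % phosphorylation; IC50 by non-linear regression.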

[2] = tested on: Tau phosphorylation at Thr212 (pThr212); experiment: tau phosphorylation assay: phosphoTau (Thr212) AlphaLISA in HEK293T cells transfected with DYRK1A and MAPT; assay type: cell-based; settings: HEK-293T; HEK293T cells transfected with human DYRK1A and MAPT; 18-24 h compound treatment; read-out: pTau (Thr212) EC50
Method in brief: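 HEK293T cells transiently co-transfected with human untagged DYRK1A and MAPT (441 aa Tau), reseeded, then treated 18-24 h at 37 °C with compounds (10-point 1:3 series, 20 μM to 1.1 nM final, duplicates). Lysates probed by AlphaLISA with HT7 donor and pThr212 acceptor antibodies; EC50 from curve fit of signal.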

Q: `C[C@@H](Nc1ncc2c(-c3ccc4nnn(C)c4c3)c[nH]c2n1)C1CC1` [Compound 831, (R)—N-(1-Cyclopropylethyl)-5-(1-methyl-1H-benzo[d][1,2,3]triazol-6-yl)-7H-pyrrolo[2,3-d]pyrimidin-2-amine] was tested. Which EC50 [1] did it give?
A: 7.3 nM

Q: And the EC50 [2]?
A: 165 nM

Q: What does the source list for `CO[C@H]1CC[C@@H](Nc2ncc3c(-c4ccc5nnn(C)c5c4)c[nH]c3n2)CC1` [Compound 838, N-(cis-4-Methoxycyclohexyl)-5-(1-methyl-1H-benzo[d][1,2,3]triazol-6-yl)-7H-pyrrolo[2,3-d]pyrimidin-2-amine]?
A: EC50 [1]: 9.8 nM; EC50 [2]: 25 nM

Q: Which EC50 [1] does the source give for `CC(C)(F)CNc1ncc2c(-c3ccc4nccn4n3)c[nH]c2n1` [Compound 909, N-(2-Fluoro-2-methylpropyl)-5-(imidazo[1,2-b]pyridazin-6-yl)-7H-pyrrolo [2,3-d]pyrimidin-2-amine] here?
A: 3.4 nM

Q: And the EC50 [2]?
A: 40 nM

Q: For `CC(F)(F)CNc1ncc2c(-c3ccc4nccn4n3)c[nH]c2n1` [Compound 910, N-(2,2-Difluoropropyl)-5-(imidazo[1,2-b]pyridazin-6-yl)-7H-pyrrolo[2,3-d]pyrimidin-2-amine], which EC50 [1] is on record?
A: 18.6 nM

Q: And the EC50 [2]?
A: 283 nM

Q: What does the source list for `C[C@@H](Nc1ncc2c(-c3ccc4nccn4n3)c[nH]c2n1)C(F)(F)F` [Compound 912, (R)-5-(Imidazo[1,2-b]pyridazin-6-yl)-N-(1,1,1-trifluoropropan-2-yl)-7H-pyrrolo[2,3-d]pyrimidin-2-amine]?
A: EC50 [1]: 5.5 nM; EC50 [2]: 96 nM

Q: `C[C@H](Nc1ncc2c(-c3ccc4nccn4n3)c[nH]c2n1)C(F)(F)F` [Compound 913, (S)-5-(Imidazo[1,2-b]pyridazin-6-yl)-N-(1,1,1-trifluoropropan-2-yl)-7H-pyrrolo[2,3-d]pyrimidin-2-amine] was tested. Which EC50 [1] did it give?
A: 6.4 nM

Q: And the EC50 [2]?
A: 228 nM

Q: What does the source list for `CC1(CNc2ncc3c(-c4ccc5nccn5n4)c[nH]c3n2)CC1` [Compound 919, 5-(Imidazo[1,2-b]pyridazin-6-yl)-N-((1-methylcyclopropyl)methyl)-7H-pyrrolo[2,3-d]pyrimidin-2-amine]?
A: EC50 [1]: 4 nM; EC50 [2]: 30 nM

Q: With `FC(F)(F)C1(CNc2ncc3c(-c4ccc5nccn5n4)c[nH]c3n2)CC1` [Compound 920, 5-(Imidazo[1,2-b]pyridazin-6-yl)-N-((1-(trifluoromethyl)cyclopropyl)methyl)-7H-pyrrolo[2,3-d]pyrimidin-2-amine] as the compound, how does the EC50 [1] read?
A: 6.1 nM

Q: What about the EC50 [2] of the same compound?
A: 70 nM

Q: Which results are given for `FC1(CNc2ncc3c(-c4ccc5nccn5n4)c[nH]c3n2)CCC1` [Compound 923, N-((1-Fluorocyclobutyl)methyl)-5-(imidazo[1,2-b]pyridazin-6-yl)-7H-pyrrolo[2,3-d]pyrimidin-2-amine]?
A: EC50 [1]: 2.5 nM; EC50 [2]: 20 nM

Q: What does the source list for `FC1(F)CCC(Nc2ncc3c(-c4ccc5nccn5n4)c[nH]c3n2)CC1` [Compound 924, N-(4,4-Difluorocyclohexyl)-5-(imidazo[1,2-b]pyridazin-6-yl)-7H-pyrrolo [2,3-d]pyrimidin-2-amine]?
A: EC50 [1]: 3.2 nM; EC50 [2]: 20 nM

Q: How did the EC50 [1] turn out when `CO[C@H]1CC[C@@H](Nc2ncc3c(-c4ccc5nccn5n4)c[nH]c3n2)CC1` [Compound 925, 5-(Imidazo[1,2-b]pyridazin-6-yl)-N-(cis-4-methoxycyclohexyl)-7H-pyrrolo[2,3-d]pyrimidin-2-amine] was run?
A: 3.2 nM

Q: And the EC50 [2]?
A: 25 nM

Q: Which results are given for `Cc1cnc2ccc(-c3c[nH]c4nc(NCC(C)(C)F)ncc34)nn12` [Compound 1038, N-(2-Fluoro-2-methylpropyl)-5-(3-methylimidazo[1,2-b]pyridazin-6-yl)-7H-pyrrolo[2,3-d]pyrimidin-2-amine]?
A: EC50 [1]: 4.2 nM; EC50 [2]: 33 nM

Q: `COc1nc(CC(C)C)nc2[nH]cc(-c3ccn4nccc4c3)c12` [Compound 1113, 2-Isobutyl-4-methoxy-5-(pyrazolo[1,5-a]pyridin-5-yl)-7H-pyrrolo[2,3-d]pyrimidine] was tested. Which EC50 [1] did it give?
A: 9.2 nM

Q: What about the EC50 [2] of the same compound?
A: 572 nM

Q: With `c1cc2cc(-c3c[nH]c4nc(C5CC5)ncc34)ccn2n1` [Compound 1115, 2-Cyclopropyl-5-(pyrazolo[1,5-a]pyridin-5-yl)-7H-pyrrolo[2,3-d]pyrimidine] as the compound, how does the EC50 [1] read?
A: 24.9 nM

Q: What about the EC50 [2] of the same compound?
A: 386 nM

Reference: patent US20250129104A1, “7H-PYRROLO[2,3-D]PYRIMIDINES AND PREPARATION AND USES THEREOF” (BioSplice Therapeutics, Inc., priority 2021, published 2025)
